Data reported in patent US12083134B2, “Anacardic acid for neural repair” (Vanderbilt University, priority 2018, dated 2024).

Key:
[1] = system: experimental allergic encephalitis (EAE); test: EAE prevention, AA from day of immunization with MOG peptide; assay type: in vivo, mice
Source text: In two experiments, only 2 of 10 mice in the AA treated group developed grade 1 paralysis. In the vehicle treated group, 9 out of 10 mice developed paralysis. Clinical scoring: 1=limp tail, 2=ataxia of gait and paralysis of one or more limbs, 3=paralysis of two or more limbs, 4=weakness of all limbs, 5=death.
(§1) The data is expressed as a percent area of myelin loss in three non-contiguous axial sections of the spinal cord; p<0.01 between treated and untreated groups when AA is given beginning day 0 or from the onset of symptoms.
(§2) Experimental allergic encephalitis (“EAE”) is an autoimmune inflammatory demyelinating disease of the CNS. For experimental purposes, the disease is induced in animals by immunizing the animals with myelin antigens in adjuvant. […] Ten to twelve days after immunization, paralysis develops in the animals. The degree of paralysis is scored as follows: 1=limp tail, 2=ataxia of gait and paralysis of one or more limbs, 3=paralysis of two or more limbs, 4=weakness of all limbs, 5=death.
The EAE model has been used extensively to examine the efficacy of potential drugs for MS therapy. The efficacy of AA in preventing EAE in mice immunized with MOG peptide in adjuvant was tested. A total of 10 mice were administered 0.25 mg/kg of AA dissolved in DMSO (vehicle) and a total of 10 mice were administered the vehicle alone by intraperitoneal injection daily for the entire length of the study (28 days). AA was obtained from commercial sources. Nine of 10 animals in the vehicle group developed paralytic signs, with a mean maximal paralytic score of 2.66. Two of 10 animals that received AA developed paralysis which was scored as a grade 1 paralysis (P<0.01 treated versus placebo). There was also significant decrease in the loss of myelin in the […]. (FIG. 13).
To confirm that the clinical scores calculated in the EAR experiments reflect pathology, the extent of demyelination in the cervical, thoracolumbar cord of each mouse in the vehicle treated and AA treated groups was examined. […]

OPCs = test: Maturation of OPCs to mature oligodendrocytes, MBP staining after 14 days culture with AA; assay type: cell-based, rat; settings: AA 1 μM
Description: FIG. 6 provides images showing the increased differentiation of OPCs to mature oligodendrocytes following culture with AA (Ana). OPCs were isolated from rat pups and were cultured with AA where 1 μM of AA was added to the culture every other day for 14 days. At the end of the experiment, the cells were stained and the amount of MBP was assessed using ImagJ software.
The expression of MBP, a marker for myelin maturation in OPCs, was investigated in the presence and absence of AA (1 μM) following culture with AA for 14 days.

[2] = system: experimental allergic encephalitis (EAE); test: EAE treatment, AA from earliest onset of paralytic signs; assay type: in vivo, mice
Source text: as §1, §2
To determine if treatment with AA would promote recovery after paralytic attack, the experiment shown in FIG. 13 was repeated but treatment with AA was not initiated until the earliest sign of disease appeared which occurred between days 11 and 12 following the initial immunization with MOG antigen. In the experiment, 10 mice were administered 0.25 mg/kg AA a day in DMSO and 10 mice were administered DMSO (vehicle). In the 10 mice that received 0.25 mg/kg AA a day, there was no difference in the mean maximal severity of the disease when compared to vehicle treated mice. The mean maximal severity was 2.8 in the vehicle treated group and was 2.6 in the AA treated group. However, there was a rapid reversal of paralysis in the AA treated group.
When AA was administered at the earliest onset of clinical signs of paralysis, the percent demyelination score in the AA treated group was 2.9. In comparison, in the vehicle treated group the percent demyelination score was 7.2 (P<0.01) (FIG. 15).

MBP in OPCs = test: Western blot of MBP in OPCs cultured with AA for 10 days; assay type: cell-based, rat
Description: To further verify the ability of AA to induce MBP protein synthesis, 4×10^6 OPCs were cultured in poly-D lysine coated culture dishes with and without AA for 10 days. The AA concentrations that were studied were as follows: 1, 2.5, 5, 7.5, and 10 μM. The growth medium was changed every three days. […] Upon culture in vitro, OPCs differentiated and became myelin expressing cells, a process which took about 7-14 days.

CCCCCCCCCCCCCCCc1cccc(O)c1C(=O)O [AA, anacardic acid]
demyelination in the spinal cord ([1]; AA 0.25 mg/kg daily from day 0, vehicle 9.9+/−4.0 percent): no demyelination | animals that developed paralysis ([1]; AA 0.25 mg/kg ip daily for 28 days from immunization, vehicle nine of 10, P<0.01): 2 of 10 and Two of 10 | grade of paralysis (clinical score 1-5) ([1]; AA 0.25 mg/kg ip daily from immunization, affected animals): 1 | increase in the expression of MBP vs normal growth medium (OPCs): 2.1 fold | mean maximal severity (clinical score) ([2]; AA 0.25 mg/kg a day from earliest sign of disease (days 11-12), vehicle 2.8): 2.6 | percent demyelination score ([2]; AA 0.25 mg/kg/day from earliest onset of clinical signs, vehicle 7.2, P<0.01): 2.9% | recovery from paralysis ([2]; by day 24, AA 0.25 mg/kg a day from onset, one animal grade 2 weakness): all the other mice had fully recovered | increase in the expression of MBP (image analysis, FIG. 4) (MBP in OPCs; OPCs cultured with AA, concentration not given): 2.4 fold | level of MBP (Western blot) (MBP in OPCs; OPCs, AA 1, 2.5, 5, 7.5 and 10 μM, 10 days): increased the level of MBP in a dose dependent manner
